{
  "source": "patent US20130280252A1",
  "about": "“METHOD FOR SELECTING PATIENT TO BE GIVEN DRUG FOR TREATING SEPTICEMIA” (MOCHIDA PHARMACEUTICAL CO., LTD., priority 2011, published 2013)",
  "molecules": {"B1": {"name": "F1024S-D2(3): modified form of an anti-CD14 antibody in which the domain 2 of urinary trypsin inhibitor (UTI) is bound to the anti-CD14 antibody; fusion protein (antibody)", "heavy": "QIQLVQSGPELKKPGESVKISCKASGYTFTDYAMNWVKQAPGNGLKWMGWINTQTGKPTYADDFKQRFVFSLETSASTAYLQINNLNIEDTATYFCTRSTFYYSSYIYGWYFDFWGPGTMVTVSSASTKGPSVFPLAPCSRSTSESTAALGCLVKDYFPEPVTVSWNSGALTSGVHTFPAVLQSSGLYSLSSVVTVPSSSLGTKTYTCNVDHKPSNTKVDKRVESKYGPPGPSGPAPEFLGGPSVFLFPPKPKDTLMISRTPEVTCVVVDVSQEDPEVQFNWYVDGVEVHNAKTKPREEQFNSTYRVVSVLTVLHQDWLNGKEYKCKVSNKGLPSSIEKTISKAKGQPREPQVYTLPPSQEEMTKNQVSLTCLVKGFYPSDIAVEWESNGQPENNYKTTPPVLDSDGSFFLYSRLTVDKSRWQEGNVFSCSVMHEALHNHYTQKSLSLSLGKGSTVAACNLPIVSGPCRAFIKLWAFDAVKGKCVLFPYGGCQGNGNKFDSEKECREYCGVPGDGDEELLRFSN", "light": "DIVMTQSPTSISISVGERVTMNCKASQNVGSNVDWYQQKTGQSPKLLIYKASNRYTGVPDRFTGSGSGTDFTFTISNMQAVDLAVYYCMQSNTNPPWTFGGGTKLELKRTVAAPSVFIFPPSDEQLKSGTASVVCLLNNFYPREAKVQWKVDNALQSGNSQESVTEQDSKDSTYSLSSTLTLSKADYEKHKVYACEVTHQGLSSPVTKSFNRGEC"}},
  "key": {"severe septic patients [1]": {"tested_on": "severe septic patients", "conditions": "high-dosage group; mortality risk 20% to 80% by APACHE II Score; cited from earlier work"}, "severe septic patients [2]": {"tested_on": "severe septic patients", "test": "Human clinical test of E5564 in severe septic patients", "format": "in vivo", "conditions": "patients meeting at least three SIRS criteria and sCD14-ST equal to or greater than cut-off", "experimental": "(§1) According to one example of the patient selection standards, E5564 is administered to a patient who meets at least three items of the SIRS diagnostic criteria to [4] and whose sCD14-ST concentration is equal to or greater than the cut-off value. Addition of the sCD14-ST concentration to the indexes used in setting the patient selection standards enables establishment of the patient selection standards that suit the action mechanism of E5564 and thus permits further improvement in E5564 efficacy than when the patient selection standards are set using only the physiological conditions as indexes."}, "rabbit CLP model [3]": {"tested_on": "rabbit CLP model", "test": "Rabbit CLP model with E5564 (Example 3-1)", "format": "in vivo", "conditions": "3 mg/kg to 10 mg/kg; 1 and 5 hours or 2 and 6 hours after surgery", "experimental": "A rabbit CLP model is prepared as in Example 1. The E5564 administration timing is set to 1 hour and 5 hours after surgery or 2 hours and 6 hours after surgery and, as in Example 1, the sCD14-ST concentration in the blood at the time the therapeutic agent is administered is later checked with reference to the blood sCD14-ST concentration transition data. The dosage of E5564 is 3 mg/kg to 10 mg/kg. The body temperature and the leukocyte count of the rabbits are measured with time and used as indexes of the physiological conditions."}, "rabbit CLP model [4]": {"tested_on": "rabbit CLP model", "test": "Rabbit CLP model with Resatorvid (Example 2-1)", "format": "in vivo", "conditions": "3 mg/kg to 10 mg/kg; 1 and 5 hours or 2 and 6 hours after surgery", "experimental": "A rabbit CLP model is prepared as in Example 1. The Resatorvid administration timing is set to 1 hour and 5 hours after surgery or 2 hours and 6 hours after surgery and, as in Example 1, the blood sCD14-ST concentration at the time the therapeutic agent is administered is later checked with reference to the blood sCD14-ST concentration transition data. The dosage of Resatorvid is 3 mg/kg to 10 mg/kg. The body temperature and the leukocyte count of the rabbits are measured with time and used as indexes of the physiological conditions."}, "severe septic patients [5]": {"tested_on": "severe septic patients", "conditions": "severe sepsis with shock or respiratory failure, cited from earlier work"}, "rabbit CLP model [6]": {"tested_on": "rabbit CLP model", "test": "Resatorvid-administered rabbit CLP model (Example 4)", "format": "in vivo", "experimental": "Two Resatorvid-administered groups were set with different administration timings. Ten mg/kg of Resatorvid was intravenously administered at timings of 1 hour and 5 hours after surgery to one group (hereinafter referred to as first-hour administered group) and 3 hours and 7 hours after surgery to the other group (hereinafter referred to as third-hour administered group). A group not to be administered Resatorvid (hereinafter referred to as control group) was administered a 10% aqueous solution of cyclodextrin, a Resatorvid solvent, 1 hour and 5 hours after surgery. Each of the groups consisted of 10 individuals; survival was checked until 48 hours after surgery. The platelet count and the leukocyte count were measured until 24 hours after surgery."}, "severe septic patients [7]": {"tested_on": "severe septic patients", "test": "Human clinical test of Resatorvid in severe septic patients", "format": "in vivo", "conditions": "patients meeting at least three SIRS criteria and sCD14-ST equal to or greater than cut-off", "experimental": "The specific standards used for selection of patients are as follows: Severe sepsis meets at least three items of the SIRS diagnostic criteria to [4], and the patient has or is suspected to have an infection requiring treatment with antibiotics. Septic shock needs a vasopressor to maintain a systolic blood pressure of at least 90 mmHg even under an appropriate body fluid management.\nas §1, with “Resatorvid” for “E5564”, “enables” for “permits”"}, "[8]": {"tested_on": "cecal ligation and puncture-induced peritonitis rabbit model", "conditions": "CLP-induced peritonitis rabbit model; cited from earlier work"}, "[9]": {"tested_on": "human vascular endothelial cell", "conditions": "cited from earlier work"}, "[10]": {"tested_on": "cecal ligation and puncture-induced peritonitis rabbit model (rabbit CLP model)", "test": "Rabbit CLP sepsis model, F1024S-D2(3) administered (Example 1)", "format": "in vivo", "conditions": "for Survival time: 10 mg/kg intravenously two hours after surgery", "experimental": "A cecal ligation and puncture-induced peritonitis rabbit model (rabbit CLP model; CLP for cecal ligation and puncture) was used as the sepsis model to verify the improvement in efficacy of the therapeutic agent for sepsis when a patient to be administered the therapeutic agent for sepsis (F1024S-D2(3)) was selected using the sCD14-ST concentration as index. The rabbit CLP model was prepared using male rabbits, New Zealand white, each weighing 1.5 kg to 1.99 kg on arrival (Kitayama Labes Co., Ltd.), which had their cecum punctured under anesthesia at two places to make holes each measuring 2 cm to release the cecal contents into the peritoneal cavity according to the method described by Keith A et al (Journal of Surgical Research, Vol. 29, 189 (1980)). In order to stabilize the postsurgical state, all the operated individuals were intravenously administered 60 mg/kg of Shiomarin (Latamoxef Sodium for administration by injection, Shionogi & Co., Ltd.) two hours after surgery.\nBlood was sampled at intervals before and after surgery to measure the sCD14-ST concentrations in the blood. The sCD14-ST concentrations in the blood were measured by the method described in Example 3 in WO2009/142303. In this model, the pathology progresses within several hours, resulting in death within 7 to 8 hours after surgery in the earliest cases. Because the measured values of the sCD14-ST concentration in the blood can only be known five to six hours after blood sampling, administering the therapeutic agent only after checking the results is belated. Therefore, the administration timing of the therapeutic agent was set to two hours after surgery, and the blood sCD14-ST concentration at the time when the therapeutic agent was administered was later checked with reference to blood sCD14-ST concentration transition data. Using the respective sCD14-ST concentrations in the blood before surgery of the individuals as normal values, twice the normal values were set as the respective cut-off values. Thus, the survival rates of the cases where the sCD14-ST concentrations in the blood were at least twice the normal values at the time of administration of the therapeutic agent were compared with that of the control cases (see Table 1). The therapeutic agent-administered cases were intravenously administered 10 mg/kg of F1024S-D2(3). The control cases were intravenously administered 10 mg/kg of human immunoglobulin (hIg) in lieu of F1024S-D2(3).\nThe transition of the sCD14-ST concentration in the blood reflects the severity of sepsis."}, "[11]": {"tested_on": "LPS-induced sepsis rabbit model", "conditions": "cited from earlier work"}},
  "note": "Entries after “also recorded” stand apart in the source; their conditions may differ. Counter-ions that a name gives are not always drawn. Like-named read-outs stand apart in the source and are kept apart here.",
  "data": [
    {"molecule": "CCCCCC/C=C\\CCCCCCCCCC(=O)N[C@H]1[C@H](OC[C@H]2O[C@H](OP(=O)(O)O)[C@H](NC(=O)CC(=O)CCCCCCCCCCC)[C@@H](OCCCCCCCCCC)[C@@H]2O)O[C@H](COC)[C@@H](OP(=O)(O)O)[C@@H]1OCC[C@@H](CCCCCCC)OC", "note": "[E5564, α-D-Glucopyranose, 3-O-decyl-2-deoxy-6-O-[2-deoxy-3-O-[(3R)-3-methoxydecyl]-6-O-methyl-2-[[(11Z)-1-oxo-11-octadecenyl]amino]-4-O-phosphono-β-D-glucopyranosyl]-2-[(1,3-dioxotetradecyl)amino]-1-(dihydrogen phosphate), tetrasodium salt]", "values": [
      {"measurement": "Mortality rate", "setting": "severe septic patients [1]", "value": "a tendency to reduce the mortality rate was observed in a high-dosage group, but it was of no statistic significance"},
      {"measurement": "Efficacy when patient selection standards use sCD14-ST concentration as index", "setting": "severe septic patients [2]", "value": "improvement in E5564 efficacy can be observed"},
      {"measurement": "Efficacy when sCD14-ST concentration is used as index", "setting": "rabbit CLP model [3]", "value": "reveals improvement in the efficacy"}
    ]},
    {"molecule": "CCOC(=O)C1=CCCC[C@H]1S(=O)(=O)Nc1ccc(F)cc1Cl", "note": "[Resatorvid, ethyl (6R)-6-[N-(2-chloro-4-fluorophenyl)sulfonyl]cyclohex-1-ene-1-carboxylate]", "values": [
      {"measurement": "Efficacy when sCD14-ST concentration is used as index", "setting": "rabbit CLP model [4]", "value": "reveals improvement in the efficacy"},
      {"measurement": "Mortality rate", "setting": "severe septic patients [5]; high-dosage group", "value": "a tendency to reduce the mortality rate was observed among the high-dosage group, it was of no statistic significance; also recorded: a tendency to reduce the mortality rate was observed in the high-dosage group, it was of no statistic significance"},
      {"measurement": "Serum IL-6 level", "setting": "severe septic patients [5]", "value": "failed to suppress the serum IL-6 level"},
      {"measurement": "Recovery in leukocyte count, first-hour versus third-hour administered group", "setting": "rabbit CLP model [6]; 10 mg/kg i.v.", "value": "observed more significantly in the first-hour administered group than in the third-hour administered group"},
      {"measurement": "Survival rate versus control group", "setting": "rabbit CLP model [6]; 10 mg/kg i.v. at 1 and 5 hours or 3 and 7 hours after surgery, checked until 48 hours", "value": "survival rates improved in the first-hour Resatorvid-administered group and the third-hour Resatorvid-administered group over the control group"},
      {"measurement": "Platelet count", "setting": "rabbit CLP model [6]; 12th hour after surgery, 10 mg/kg i.v.", "value": "showed a tendency to recover at the 12th hour after surgery, but failed to recover"},
      {"measurement": "Leukocyte count versus control group", "setting": "rabbit CLP model [6]; 24th hour after surgery, 10 mg/kg i.v.", "value": "showed recovery in leukocyte count as compared with the control group"},
      {"measurement": "Survival rate, first-hour versus third-hour administered group", "setting": "rabbit CLP model [6]; first 24 hours, 10 mg/kg i.v.", "value": "the first-hour administered group showed a higher survival rate than the third-hour administered group"},
      {"measurement": "Efficacy when patient selection standards use sCD14-ST concentration as index", "setting": "severe septic patients [7]", "value": "improvement in Resatorvid efficacy can be observed"}
    ]},
    {"molecule": "B1", "values": [
      {"measurement": "Survival rate", "setting": "[8]", "value": "improve the survival rate of a cecal ligation and puncture-induced peritonitis rabbit model"},
      {"measurement": "Production of IL-6 induced by LPS stimulation", "setting": "[9]", "value": "suppress production of IL-6"},
      {"measurement": "Survival time", "setting": "[10]; Severity Especially high", "value": 7, "unit": "h"},
      {"measurement": "Survival time", "setting": "[10]; Severity High", "value": 23, "unit": "h"},
      {"measurement": "Survival time", "setting": "[10]; Severity Medium", "value": 47, "unit": "h"},
      {"measurement": "Effect on survival time versus control cases", "setting": "[10]; especially high severity cases", "value": "no difference in survival time was observed"},
      {"measurement": "Effect on survival time versus control cases", "setting": "[10]; medium to high severity cases, administered when blood sCD14-ST at least twice the normal value", "value": "an effect of prolonging the survival time was observed"},
      {"measurement": "Survival rate", "setting": "[11]", "value": "improve the survival rate of an LPS-induced sepsis rabbit model"}
    ]}
  ]
}
